# Test results taken from patent US9932331B2, “Phenyl tetrahydroisoquinoline compound substituted with heteroaryl” (TAISHO PHARMACEUTICAL CO., LTD, priority 2014, dated 2018).
# Structures can show the parent of a compound that is named as a salt.
# How the values were obtained:
# SD rat = assay: 32P-phosphate oral loading test using SD rat (phosphorus absorption inhibitory effect); format: in vivo; details: Rattus norvegicus, 0.5 h, SD male rats, plasma radioactivity 30 minutes after 32P-phosphate solution, vs control group, read-out: Rate of inhibition of phosphate absorption
# Description: Phosphorus Absorption Inhibitory Effect of the Compound of the Present Invention in ^32P-Phosphate Oral Loading Test Using SD Rat
# 8-week-old SD male rats (Japan SLC, Inc.) were used as laboratory animals. Each test compound was suspended or dissolved at a concentration of 0.2 mg/mL or 0.6 mg/mL in Japanese Pharmacopoeia water for injection (manufactured by Hikari Pharmaceutical Co., Ltd.) and orally administered to each rat at a dose of 5 ml/kg body weight. Japanese Pharmacopoeia water for injection was administered at the same dose as above to a control group. 5 minutes after the administration of the test compound or water for injection, a phosphate solution (1.3 mM NaH2PO4) containing 32P-phosphate (PerkinElmer Inc.) was administered thereto at a dose of 5 ml/kg. 30 minutes after the administration of the phosphate solution, blood was collected from the tail vein, and the blood sample was immediately mixed with EDTA-2K (manufactured by Dojindo Laboratories). Then, the mixture was centrifuged at 3000 rpm at 4° C. for 10 minutes to recover plasma.
# The radioactivity in 100 μL of the plasma was measured using a liquid scintillation counter and used as a phosphate absorption count. The radioactivity in the plasma of the control group was used as a control, and the rate of inhibition of phosphate absorption was determined according to the following expression: Rate of inhibition of phosphate absorption (%)=(1−Phosphate absorption count of the test compound administration group/Phosphate absorption count of the control group)×100 (2) Results
# human NHE3 = target: T1, human NHE3 (Homo sapiens, UniProt P48764); assay: NHE3 inhibition test (recovery of intracellular pH in cell line stably expressing human NHE3); format: cell-based; details: OK cells deficient in endogenous NHE stably expressing human NHE3; BCECF fluorescence, initial rate of pH recovery; read-out: human NHE3 inhibitory activity IC50
# T1 sequence (P48764 26-834): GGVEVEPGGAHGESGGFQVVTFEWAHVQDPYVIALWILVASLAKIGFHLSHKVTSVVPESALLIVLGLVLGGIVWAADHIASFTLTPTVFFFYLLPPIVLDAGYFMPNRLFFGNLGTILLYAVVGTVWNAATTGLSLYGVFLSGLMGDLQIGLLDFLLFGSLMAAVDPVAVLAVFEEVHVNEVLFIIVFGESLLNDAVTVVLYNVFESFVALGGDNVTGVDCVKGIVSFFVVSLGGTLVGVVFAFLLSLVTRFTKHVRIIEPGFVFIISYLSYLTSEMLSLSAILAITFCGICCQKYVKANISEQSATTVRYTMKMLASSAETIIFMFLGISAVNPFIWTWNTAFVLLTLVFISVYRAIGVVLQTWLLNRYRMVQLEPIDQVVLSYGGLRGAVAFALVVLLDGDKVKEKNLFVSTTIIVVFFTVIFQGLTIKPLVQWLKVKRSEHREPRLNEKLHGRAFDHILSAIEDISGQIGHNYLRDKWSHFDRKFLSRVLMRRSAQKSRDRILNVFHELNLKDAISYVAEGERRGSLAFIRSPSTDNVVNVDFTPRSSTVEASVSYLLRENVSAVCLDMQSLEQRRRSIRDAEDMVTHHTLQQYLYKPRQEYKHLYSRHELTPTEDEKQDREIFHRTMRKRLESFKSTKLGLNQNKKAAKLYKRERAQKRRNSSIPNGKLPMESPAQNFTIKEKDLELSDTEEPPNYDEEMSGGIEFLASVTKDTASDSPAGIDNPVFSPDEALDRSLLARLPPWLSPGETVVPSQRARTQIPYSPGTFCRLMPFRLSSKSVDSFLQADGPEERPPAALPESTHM
# Method in brief: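 Opossum kidney cells lacking endogenous NHE, stably expressing human NHE3, loaded with BCECF-AM and acid-loaded by NH4Cl washout. Compound in Na-free buffer, then Na-containing buffer (pH 7.4) added; initial pH-recovery rate by BCECF fluorescence, IC50 versus no-compound recovery.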
Structure (SMILES),inhibition in vivo at 1 mg/kg (SD rat; oral dose 1 mg/kg) [%],IC50 (human NHE3) [nM],inhibition in vivo at 3 mg/kg (SD rat; oral dose 3 mg/kg) [%]
"CN1Cc2c(Cl)cc(Cl)cc2[C@H](c2cccc(-c3cn(CCOCCOCCOCCNC(=O)NCCCCNC(=O)NCCOCCOCCOCCn4cc(-c5cccc([C@@H]6CN(C)Cc7c(Cl)cc(Cl)cc76)c5)nn4)nn3)c2)C1 [Example 6-2, 1,1′-Butane-1,4-diylbis {3-[2-(2-{2-[2-(4-{3-[(4S)-6,8-dichloro-2-methyl-1,2,3,4-tetrahydroisoquinolin-4-yl]phenyl}-1H-1,2,3-triazol-1-yl)ethoxy]ethoxy}ethoxy)ethyl]urea}hydrochloride]",47,5.7,
"CN1Cc2c(Cl)cc(Cl)cc2[C@H](c2cccc(-c3cn(CCOCCOCCNC(=O)COCC(=O)NCCOCCOCCn4cc(-c5cccc([C@@H]6CN(C)Cc7c(Cl)cc(Cl)cc76)c5)nn4)nn3)c2)C1 [Example 6-4, 1-(4-{3-[(4S)-6,8-Dichloro-2-methyl-1,2,3,4-tetrahydroisoquinolin-4-yl]phenyl}-1H-1,2,3-triazol-1-yl)-N-(2-{2-[2-(4-{3-[(4S)-6,8-dichloro-2-methyl-1,2,3,4-tetrahydroisoquinolin-4-yl]phenyl}-1H-1,2,3-triazol-1-yl)ethoxy]ethoxy}ethyl)-10-oxo-3,6,12-trioxa-9-azatetradecan-14-amide hydrochloride]",,97.6,-5
"CN1Cc2c(Cl)cc(Cl)cc2[C@H](c2cccc(-c3cc(NCCOCCOCCOCCNC(=O)CCCCC(=O)NCCOCCOCCOCCNc4cc(-c5cccc([C@@H]6CN(C)Cc7c(Cl)cc(Cl)cc76)c5)ncn4)ncn3)c2)C1 [Example 8-13, N,N′-Bis{2-[2-(2-{2-[(6-{3-[(4S)-6,8-dichloro-2-methyl-1,2,3,4-tetrahydroisoquinolin-4-yl]phenyl}pyrimidin-4-yl)amino]ethoxy}ethoxy)ethoxy]ethyl}hexanediamide hydrochloride]",,10.6,
"CN1Cc2c(Cl)cc(Cl)cc2[C@H](c2cccc(-c3nnc(CCOCCOCCOCCNC(=O)[C@H](O)[C@@H](O)C(=O)NCCOCCOCCOCCc4nnc(-c5cccc([C@@H]6CN(C)Cc7c(Cl)cc(Cl)cc76)c5)[nH]4)[nH]3)c2)C1 [Example 8-15, (2R,3R)-N,N′-Bis[2-(2-{2-[2-(5-{3-[(4S)-6,8-dichloro-2-methyl-1,2,3,4-tetrahydroisoquinolin-4-yl]phenyl}-4H-1,2,4-triazol-3-yl)ethoxy]ethoxy}ethoxy)ethyl]-2,3-dihydroxybutanediamide diformate]",,1.9,
"CN1Cc2c(Cl)cc(Cl)cc2[C@H](c2cccc(-c3cnnc(NCCOCCOCCOCCNC(=O)[C@H](O)[C@@H](O)C(=O)NCCOCCOCCOCCNc4cc(-c5cccc([C@@H]6CN(C)Cc7c(Cl)cc(Cl)cc76)c5)cnn4)c3)c2)C1 [Example 8-19, (2R,3R)-N,N′-Bis{2-[2-(2-{2-[(5-{3-[(4S)-6,8-dichloro-2-methyl-1,2,3,4-tetrahydroisoquinolin-4-yl]phenyl}pyridazin-3-yl)amino]ethoxy}ethoxy)ethoxy]ethyl}-2,3-dihydroxybutanediamide tetrahydrochloride]",,6.8,
"CN1Cc2c(Cl)cc(Cl)cc2[C@H](c2cccc(-c3cnc(NCCOCCOCCOCCNC(=O)[C@H](O)[C@@H](O)C(=O)NCCOCCOCCOCCNc4ncc(-c5cccc([C@@H]6CN(C)Cc7c(Cl)cc(Cl)cc76)c5)cn4)nc3)c2)C1 [Example 8-21, (2R,3R)-N,N′-Bis{2-[2-(2-{2-[(5-{3-[(4S)-6,8-dichloro-2-methyl-1,2,3,4-tetrahydroisoquinolin-4-yl]phenyl}pyrimidin-2-yl)amino]ethoxy}ethoxy)ethoxy]ethyl}-2,3-dihydroxybutanediamide formate]",,3.2,
"CN1Cc2c(Cl)cc(Cl)cc2[C@H](c2cccc(-c3cc(OCCOCCOCCOCCNC(=O)CCC(=O)NCCOCCOCCOCCOc4cc(-c5cccc([C@@H]6CN(C)Cc7c(Cl)cc(Cl)cc76)c5)ncn4)ncn3)c2)C1 [Example 8-22, N,N′-Bis{2-[2-(2-{2-[(6-{3-[(4S)-6,8-dichloro-2-methyl-1,2,3,4-tetrahydroisoquinolin-4-yl]phenyl}pyrimidin-4-yl)oxy]ethoxy}ethoxy)ethoxy]ethyl}butanediamide hydrochloride]",,10.5,
"CN1Cc2c(Cl)cc(Cl)cc2[C@H](c2cccc(-c3cc(OCCOCCOCCOCCNC(=O)CCCCC(=O)NCCOCCOCCOCCOc4cc(-c5cccc([C@@H]6CN(C)Cc7c(Cl)cc(Cl)cc76)c5)ncn4)ncn3)c2)C1 [Example 8-23, N,N′-Bis{2-[2-(2-{2-[(6-{3-[(4S)-6,8-dichloro-2-methyl-1,2,3,4-tetrahydroisoquinolin-4-yl]phenyl}pyrimidin-4-yl)oxy]ethoxy}ethoxy)ethoxy]ethyl}hexanediamide hydrochloride]",,4.7,
"CN1Cc2c(Cl)cc(Cl)cc2[C@H](c2cccc(-c3nnc(CCOCCOCCOCCNC(=O)[C@@H](O)[C@H](O)[C@H](O)[C@@H](O)C(=O)NCCOCCOCCOCCc4nnc(-c5cccc([C@@H]6CN(C)Cc7c(Cl)cc(Cl)cc76)c5)[nH]4)[nH]3)c2)C1 [Example 8-24, (2R,3S,4R,5S)-N,N′-Bis[2-(2-{2-[2-(5-{3-[(4S)-6,8-dichloro-2-methyl-1,2,3,4-tetrahydroisoquinolin-4-yl]phenyl}-4H-1,2,4-triazol-3-yl)ethoxy]ethoxy}ethoxy)ethyl]-2,3,4,5-tetrahydroxyhexanediamide hydrochloride]",,3.4,
"CN1Cc2c(Cl)cc(Cl)cc2[C@H](c2cccc(-c3nnn(CCOCCOCCOCCNC(=O)[C@@H](O)[C@H](O)[C@H](O)[C@@H](O)C(=O)NCCOCCOCCOCCn4nnc(-c5cccc([C@@H]6CN(C)Cc7c(Cl)cc(Cl)cc76)c5)n4)n3)c2)C1 [Example 8-25, (2R,3S,4R,5S)-N,N′-Bis[2-(2-{2-[2-(5-{3-[(4S)-6,8-dichloro-2-methyl-1,2,3,4-tetrahydroisoquinolin-4-yl]phenyl}-2H-tetrazol-2-yl)ethoxy]ethoxy}ethoxy)ethyl]-2,3,4,5-tetrahydroxyhexanediamide hydrochloride]",,0.2,
"CN1Cc2c(Cl)cc(Cl)cc2[C@H](c2cccc(-c3cc(NCCOCCOCCOCCNC(=O)[C@@H](O)[C@H](O)[C@H](O)[C@@H](O)C(=O)NCCOCCOCCOCCNc4cc(-c5cccc([C@@H]6CN(C)Cc7c(Cl)cc(Cl)cc76)c5)ncn4)ncn3)c2)C1 [Example 8-26, (2R,3S,4R,5S)-N,N′-Bis{2-[2-(2-{2-[(6-{3-[(4S)-6,8-dichloro-2-methyl-1,2,3,4-tetrahydroisoquinolin-4-yl]phenyl}pyrimidin-4-yl)amino]ethoxy}ethoxy)ethoxy]ethyl}-2,3,4,5-tetrahydroxyhexanediamide hydrochloride]",,2.2,
"CN1Cc2c(Cl)cc(Cl)cc2[C@H](c2cccc(-c3cn(CCOCCOCCOCCNC(=O)CN(CCN(CC(=O)NCCOCCOCCOCCn4cc(-c5cccc([C@@H]6CN(C)Cc7c(Cl)cc(Cl)cc76)c5)nn4)CC(=O)NCCOCCOCCOCCn4cc(-c5cccc([C@@H]6CN(C)Cc7c(Cl)cc(Cl)cc76)c5)nn4)CC(=O)NCCOCCOCCOCCn4cc(-c5cccc([C@@H]6CN(C)Cc7c(Cl)cc(Cl)cc76)c5)nn4)nn3)c2)C1 [Example 9-1, hydrochloride]",,13.1,
